# In patent US8192962B2, “Processes for detecting toxic substances” (Daikin Industries, Ltd., priority 2001, dated 2012):
# Test system: Genes belonging to other category
# Test: DNA chip mRNA expression in yeast, genes belonging to other category (Table 9)
# Type: cell-based, Saccharomyces cerevisiae S288C
# In short: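 Ratios compare mRNA levels in stressed and control S. cerevisiae. Each toxicant was applied for two hours to log-phase cultures at 25° C. at a sub-lethal, growth-inhibiting level; fluorescent cDNA (Cy3- or Cy5-dUTP) was hybridized to a genome-wide yeast chip for over 12 h at 65° C.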
compound,measurement,setting,value
"Oc1cc(Cl)c(Cl)cc1Cl [(6), 2,4,5-trichlorophenol]",The level of expressed mRNA in the presence of chemical substance/The level of expressed mRNA in the absence of chemical substance,yeast gene YAR010C,2.3
same,The level of expressed mRNA in the presence of chemical substance/The level of expressed mRNA in the absence of chemical substance,yeast gene YBL005W-A,1.2
same,The level of expressed mRNA in the presence of chemical substance/The level of expressed mRNA in the absence of chemical substance,yeast gene YBL041W,1.7
same,The level of expressed mRNA in the presence of chemical substance/The level of expressed mRNA in the absence of chemical substance,yeast gene YBL043W,26.9
same,The level of expressed mRNA in the presence of chemical substance/The level of expressed mRNA in the absence of chemical substance,yeast gene YBL078C,2.4
same,The level of expressed mRNA in the presence of chemical substance/The level of expressed mRNA in the absence of chemical substance,yeast gene YBL101W-A,1.4
same,The level of expressed mRNA in the presence of chemical substance/The level of expressed mRNA in the absence of chemical substance,yeast gene YBR170C,1.4
same,The level of expressed mRNA in the presence of chemical substance/The level of expressed mRNA in the absence of chemical substance,yeast gene YBR173C,1.3
same,The level of expressed mRNA in the presence of chemical substance/The level of expressed mRNA in the absence of chemical substance,yeast gene YBR212W,1.4
same,The level of expressed mRNA in the presence of chemical substance/The level of expressed mRNA in the absence of chemical substance,yeast gene YBR214W,0.8
same,The level of expressed mRNA in the presence of chemical substance/The level of expressed mRNA in the absence of chemical substance,yeast gene YCL020W,1.0
same,The level of expressed mRNA in the presence of chemical substance/The level of expressed mRNA in the absence of chemical substance,yeast gene YCL027W,1.3
same,The level of expressed mRNA in the presence of chemical substance/The level of expressed mRNA in the absence of chemical substance,yeast gene YCR004C,1.8
same,The level of expressed mRNA in the presence of chemical substance/The level of expressed mRNA in the absence of chemical substance,yeast gene YCR069W,1.4
same,The level of expressed mRNA in the presence of chemical substance/The level of expressed mRNA in the absence of chemical substance,yeast gene YCR071C,2.5
same,The level of expressed mRNA in the presence of chemical substance/The level of expressed mRNA in the absence of chemical substance,yeast gene YCR088W,2.0
same,The level of expressed mRNA in the presence of chemical substance/The level of expressed mRNA in the absence of chemical substance,yeast gene YCR106W,1.4
same,The level of expressed mRNA in the presence of chemical substance/The level of expressed mRNA in the absence of chemical substance,yeast gene YDL008W,2.7
same,The level of expressed mRNA in the presence of chemical substance/The level of expressed mRNA in the absence of chemical substance,yeast gene YDL018C,1.4
same,The level of expressed mRNA in the presence of chemical substance/The level of expressed mRNA in the absence of chemical substance,yeast gene YDL143W,1.0
same,The level of expressed mRNA in the presence of chemical substance/The level of expressed mRNA in the absence of chemical substance,yeast gene YDL220C,1.8
same,The level of expressed mRNA in the presence of chemical substance/The level of expressed mRNA in the absence of chemical substance,yeast gene YDL230W,0.9
same,The level of expressed mRNA in the presence of chemical substance/The level of expressed mRNA in the absence of chemical substance,yeast gene YDL238C,2.1
same,The level of expressed mRNA in the presence of chemical substance/The level of expressed mRNA in the absence of chemical substance,yeast gene YDR055W,3.9
same,The level of expressed mRNA in the presence of chemical substance/The level of expressed mRNA in the absence of chemical substance,yeast gene YDR084C,2.1
same,The level of expressed mRNA in the presence of chemical substance/The level of expressed mRNA in the absence of chemical substance,yeast gene YDR085C,2.1
same,The level of expressed mRNA in the presence of chemical substance/The level of expressed mRNA in the absence of chemical substance,yeast gene YDR104C,1.7
same,The level of expressed mRNA in the presence of chemical substance/The level of expressed mRNA in the absence of chemical substance,yeast gene YDR115W,2.3
same,The level of expressed mRNA in the presence of chemical substance/The level of expressed mRNA in the absence of chemical substance,yeast gene YDR212W,1.4
same,The level of expressed mRNA in the presence of chemical substance/The level of expressed mRNA in the absence of chemical substance,yeast gene YDR259C,0.5
same,The level of expressed mRNA in the presence of chemical substance/The level of expressed mRNA in the absence of chemical substance,yeast gene YDR264C,1.8
same,The level of expressed mRNA in the presence of chemical substance/The level of expressed mRNA in the absence of chemical substance,yeast gene YDR315C,9.4
same,The level of expressed mRNA in the presence of chemical substance/The level of expressed mRNA in the absence of chemical substance,yeast gene YDR358W,2.5
same,The level of expressed mRNA in the presence of chemical substance/The level of expressed mRNA in the absence of chemical substance,yeast gene YDR388W,1.0
same,The level of expressed mRNA in the presence of chemical substance/The level of expressed mRNA in the absence of chemical substance,yeast gene YDR403W,1.1
same,The level of expressed mRNA in the presence of chemical substance/The level of expressed mRNA in the absence of chemical substance,yeast gene YDR432W,0.6
same,The level of expressed mRNA in the presence of chemical substance/The level of expressed mRNA in the absence of chemical substance,yeast gene YDR481C,0.9
same,The level of expressed mRNA in the presence of chemical substance/The level of expressed mRNA in the absence of chemical substance,yeast gene YDR510W,1.0
same,The level of expressed mRNA in the presence of chemical substance/The level of expressed mRNA in the absence of chemical substance,yeast gene YEL042W,0.5
same,The level of expressed mRNA in the presence of chemical substance/The level of expressed mRNA in the absence of chemical substance,yeast gene YEL066W,2.2
same,The level of expressed mRNA in the presence of chemical substance/The level of expressed mRNA in the absence of chemical substance,yeast gene YER021W,1.1
same,The level of expressed mRNA in the presence of chemical substance/The level of expressed mRNA in the absence of chemical substance,yeast gene YER039C,1.6
same,The level of expressed mRNA in the presence of chemical substance/The level of expressed mRNA in the absence of chemical substance,yeast gene YER078C,1.4
same,The level of expressed mRNA in the presence of chemical substance/The level of expressed mRNA in the absence of chemical substance,yeast gene YER094C,1.1
same,The level of expressed mRNA in the presence of chemical substance/The level of expressed mRNA in the absence of chemical substance,yeast gene YER107C,2.5
same,The level of expressed mRNA in the presence of chemical substance/The level of expressed mRNA in the absence of chemical substance,yeast gene YER130C,2.7
same,The level of expressed mRNA in the presence of chemical substance/The level of expressed mRNA in the absence of chemical substance,yeast gene YFL022C,0.9
same,The level of expressed mRNA in the presence of chemical substance/The level of expressed mRNA in the absence of chemical substance,yeast gene YFL028C,1.7
same,The level of expressed mRNA in the presence of chemical substance/The level of expressed mRNA in the absence of chemical substance,yeast gene YFL038C,1.3
same,The level of expressed mRNA in the presence of chemical substance/The level of expressed mRNA in the absence of chemical substance,yeast gene YFL043C,1.8
same,The level of expressed mRNA in the presence of chemical substance/The level of expressed mRNA in the absence of chemical substance,yeast gene YFR051C,0.2
same,The level of expressed mRNA in the presence of chemical substance/The level of expressed mRNA in the absence of chemical substance,yeast gene YGL056C,0.4
same,The level of expressed mRNA in the presence of chemical substance/The level of expressed mRNA in the absence of chemical substance,yeast gene YGL093W,1.0
same,The level of expressed mRNA in the presence of chemical substance/The level of expressed mRNA in the absence of chemical substance,yeast gene YGL150C,1.1
same,The level of expressed mRNA in the presence of chemical substance/The level of expressed mRNA in the absence of chemical substance,yeast gene YGL158W,0.4
same,The level of expressed mRNA in the presence of chemical substance/The level of expressed mRNA in the absence of chemical substance,yeast gene YGL166W,1.0
same,The level of expressed mRNA in the presence of chemical substance/The level of expressed mRNA in the absence of chemical substance,yeast gene YGL229C,2.2
same,The level of expressed mRNA in the presence of chemical substance/The level of expressed mRNA in the absence of chemical substance,yeast gene YGR136W,1.1
same,The level of expressed mRNA in the presence of chemical substance/The level of expressed mRNA in the absence of chemical substance,yeast gene YGR189C,0.5
same,The level of expressed mRNA in the presence of chemical substance/The level of expressed mRNA in the absence of chemical substance,yeast gene YGR213C,4.1
same,The level of expressed mRNA in the presence of chemical substance/The level of expressed mRNA in the absence of chemical substance,yeast gene YGR253C,1.4
same,The level of expressed mRNA in the presence of chemical substance/The level of expressed mRNA in the absence of chemical substance,yeast gene YGR257C,2.1
same,The level of expressed mRNA in the presence of chemical substance/The level of expressed mRNA in the absence of chemical substance,yeast gene YHR004C,2.0
same,The level of expressed mRNA in the presence of chemical substance/The level of expressed mRNA in the absence of chemical substance,yeast gene YHR027C,0.4
same,The level of expressed mRNA in the presence of chemical substance/The level of expressed mRNA in the absence of chemical substance,yeast gene YHR028C,0.9
same,The level of expressed mRNA in the presence of chemical substance/The level of expressed mRNA in the absence of chemical substance,yeast gene YHR071W,2.0
same,The level of expressed mRNA in the presence of chemical substance/The level of expressed mRNA in the absence of chemical substance,yeast gene YHR082C,0.8
same,The level of expressed mRNA in the presence of chemical substance/The level of expressed mRNA in the absence of chemical substance,yeast gene YHR136C,1.4
same,The level of expressed mRNA in the presence of chemical substance/The level of expressed mRNA in the absence of chemical substance,yeast gene YHR139C,1.9
same,The level of expressed mRNA in the presence of chemical substance/The level of expressed mRNA in the absence of chemical substance,yeast gene YHR142W,1.2
same,The level of expressed mRNA in the presence of chemical substance/The level of expressed mRNA in the absence of chemical substance,yeast gene YHR160C,1.0
same,The level of expressed mRNA in the presence of chemical substance/The level of expressed mRNA in the absence of chemical substance,yeast gene YHR166C,1.8
same,The level of expressed mRNA in the presence of chemical substance/The level of expressed mRNA in the absence of chemical substance,yeast gene YHR205W,1.0
same,The level of expressed mRNA in the presence of chemical substance/The level of expressed mRNA in the absence of chemical substance,yeast gene YIL015W,0.4
same,The level of expressed mRNA in the presence of chemical substance/The level of expressed mRNA in the absence of chemical substance,yeast gene YIL075C,0.8
same,The level of expressed mRNA in the presence of chemical substance/The level of expressed mRNA in the absence of chemical substance,yeast gene YIL123W,0.5
same,The level of expressed mRNA in the presence of chemical substance/The level of expressed mRNA in the absence of chemical substance,yeast gene YIL129C,0.3
same,The level of expressed mRNA in the presence of chemical substance/The level of expressed mRNA in the absence of chemical substance,yeast gene YIL140W,0.5
same,The level of expressed mRNA in the presence of chemical substance/The level of expressed mRNA in the absence of chemical substance,yeast gene YIL142W,1.1
same,The level of expressed mRNA in the presence of chemical substance/The level of expressed mRNA in the absence of chemical substance,yeast gene YIR009W,1.4
same,The level of expressed mRNA in the presence of chemical substance/The level of expressed mRNA in the absence of chemical substance,yeast gene YJL073W,2.0
same,The level of expressed mRNA in the presence of chemical substance/The level of expressed mRNA in the absence of chemical substance,yeast gene YJL089W,1.6
same,The level of expressed mRNA in the presence of chemical substance/The level of expressed mRNA in the absence of chemical substance,yeast gene YJL116C,3.4
